From PMC7722752, “First-in-human Phase 1 open label study of the BET inhibitor ODM-207 in patients with selected solid tumours” (British Journal of Cancer, 2020)
Like-named read-outs stand apart in the source and are kept apart here.

What was measured:
[1] = system: platelet count; assay: Phase 1 study: platelet count as pharmacodynamic biomarker; details: in vivo
Source text: Platelet count was chosen as a pharmacodynamic biomarker based on the observed robust correlation between BET inhibitor exposure and thrombocytopaenia in preclinical and clinical studies.[13],[14]

[2] = system: non-BET family bromodomains; details: preclinical; cited from earlier work
[3] = Phase 1 study: plasma pharmacokinetics and food effect; type: in vivo, human; details: for metabolite/parent ratio based in AUC(0-t): main metabolite = demethylation product
Source text: All patients provided written informed consent.

[4] = system: selected solid tumours; assay: Phase 1 study: anti-tumour activity (RECIST 1.1, PCWG3, Lugano); type: in vivo, human
Protocol: (§1) Response was assessed using RECIST 1.1 for patients with advanced solid tumours,[20] Prostate Cancer Working Group 3 criteria (PCWG3) for castrate-resistant prostate cancer[21] and Lugano criteria for non-Hodgkin lymphoma.[22]
Efficacy evaluation was performed on all patients who received two or more cycles of treatment (≥8 weeks).

[5] = system: BET; set-up: method as in earlier work; details: preclinical; cited from earlier work
[6] = system: breast cancer and leukaemia and prostate cancer xenograft models; set-up: method as in earlier work; details: preclinical; cited from earlier work
[7] = system: patients with selected solid tumours
Source text: The study design contained two parts: (1) dose escalation in patients with advanced solid tumours with an innovative single dose accelerated titration procedure in the first cohort (1A), (2) evaluation of food effect on bioavailability (1B). The single-dose accelerated titration procedure in the first cohort involved comparison of measured pharmacokinetic parameters in the first cohort of patients against preclinical models to evaluate whether exposure was within the target range. If the measured exposure was outside the target range (below or above), the protocol allowed for dose adjustment. Dose escalation was performed using a traditional 3 + 3 schedule. […] The relevant national authorities provided regulatory approval and local institutional review boards approved the protocol. All study procedures were conducted in accordance with the Declaration of Helsinki and good clinical practice. All patients provided written informed consent.
The starting dose was chosen as it was reasonably expected to be both pharmacologically active and safe and tolerable. The target exposure for the starting dose was estimated from exposures observed in pre-clinical anti-tumour activity and safety studies. The estimated human dose required was predicted by both human equivalent dose calculations and physiologically-based pharmacokinetic modelling. […] Treatment was taken in the ambulatory setting, except for hospital admissions required for pre-specified study-related procedures.
as §1
Safety analyses included all patients who received any doses of treatment. Efficacy evaluation was performed on all patients who received two or more cycles of treatment (≥8 weeks). Data points were excluded from relevant pharmacokinetic and platelet count analyses if samples were taken when the patient was on treatment interruption or within 3 days after resumption of treatment. […] Pre-dose total exposure of <3500 ng/mL was not expected to have significant BET inhibition effect and a level of ≥5000 ng/mL was expected to confer BET inhibition.

[8] = cohort 1A-1 0.6 mg/kg (50 mg) (n = 3)
[9] = cohort 1A-2 1.3 mg/kg (100 mg) (n = 7)

COc1cc2c(cc1-c1c(C)noc1C)cc(C)c(=O)n2Cc1ccccn1 [ODM-207]
correlation between plasma exposure and changes in platelet count over time [1]: strong correlation
recovery of platelet count upon treatment interruption [1]: Prompt recovery
cross-reactivity with non-BET family bromodomains [2]: minimal cross-reactivity
metabolite/parent ratio based in AUC(0-t) ([3]; day 1): 0.1–0.2
metabolite/parent ratio based in AUC(0-t) ([3]; day 15): 0.1–0.5
exposure versus dose ([3]; dose escalation 0.6–2.0 mg/kg): dose proportional exposure
Plasma exposure (AUC0-24) under fed condition versus fasting condition ([3]; food effect cohort, single dose, light breakfast vs overnight fasting): 1.5 fold
increase of mean AUC(0-t) between day 1 and day 15 of dosing ([3]; n = 28, 95% CI 2.9, 3.8): 3.4 fold
absorption and elimination (plasma pharmacokinetics) ([3]; oral): slow absorption and elimination
non-CR/non-PD (non-measurable disease) as best response ([4]; 21 evaluable patients): 6 (29%) patients
progressive disease (PD) as best response ([4]; 21 evaluable patients): 9 (43%) patients
stable disease (SD) as best response ([4]; 21 evaluable patients): 29%
partial or complete response (PR, CR) ([4]; 21 evaluable patients (≥ 8 weeks of treatment), RECIST): None had a partial or complete response
patients with NMC with SD as best response ([4]; NUT midline carcinoma, four patients): One out of four
correlation between progression-free survival and increased exposure ([4]; in vivo): no correlation
median (range) duration of SD ([4]; in vivo): 16.3 (8.0–23.0) weeks
median progression-free survival ([4]; in vivo): 2.2 months
progression-free survival, range ([4]; in vivo): 0.5–9.7 months
Treatment discontinuation due to disease progression ([4]; of 35 treated patients): 28 (80%) patients
decline in PSA below baseline level ([4]; prostate cancer patients): None of the prostate cancer patients showed decline in PSA below baseline level
BET inhibition potency [5]: highly potent
tumour growth inhibition [6]: preclinical evidence of tumour growth inhibition
Related AE: Asthenia ([7]; GRADE 1, Total (n = 35)): 3 (8.6) n (%)
Related AE: Decreased appetite ([7]; GRADE 1, Total (n = 35)): 12 (34) n (%)
Related AE: Diarrhoea ([7]; GRADE 1, Total (n = 35)): 9 (26) n (%)
Related AE: Dysgeusia ([7]; GRADE 1, Total (n = 35)): 4 (11) n (%)
Related AE: Fatigue ([7]; GRADE 1, Total (n = 35)): 9 (26) n (%)
Related AE: Headache ([7]; GRADE 1, Total (n = 35)): 7 (20) n (%)
Related AE: Nausea ([7]; GRADE 1, Total (n = 35)): 13 (37) n (%)
Related AE: Thrombocytopaenia ([7]; GRADE 1, Total (n = 35)): 15 (43) n (%)
Related AE: Vomiting ([7]; GRADE 1, Total (n = 35)): 7 (20) n (%)
Related AE: Weight loss ([7]; GRADE 1, Total (n = 35)): 4 (11) n (%)
Related AE: Asthenia ([7]; GRADE 2, Total (n = 35)): 3 (8.6) n (%)
Related AE: Decreased appetite ([7]; GRADE 2, Total (n = 35)): 8 (23) n (%)
Related AE: Diarrhoea ([7]; GRADE 2, Total (n = 35)): 5 (14) n (%)
Related AE: Dysgeusia ([7]; GRADE 2, Total (n = 35)): 3 (8.6) n (%)
Related AE: Fatigue ([7]; GRADE 2, Total (n = 35)): 6 (17) n (%)
Related AE: Headache ([7]; GRADE 2, Total (n = 35)): 3 (8.6) n (%)
Related AE: Nausea ([7]; GRADE 2, Total (n = 35)): 4 (11) n (%)
Related AE: Thrombocytopaenia ([7]; GRADE 2, Total (n = 35)): 8 (23) n (%)
Related AE: Vomiting ([7]; GRADE 2, Total (n = 35)): 3 (8.6) n (%)
Related AE: Weight loss ([7]; GRADE 2, Total (n = 35)): 1 (2.9) n (%)
Related AE: Fatigue ([7]; GRADE 3, Total (n = 35)): 2 (5.7) n (%)
Related AE: Nausea ([7]; GRADE 3, Total (n = 35)): 3 (8.6) n (%)
Related AE: Thrombocytopaenia ([7]; GRADE 3, Total (n = 35)): 4 (11) n (%)
Related AE: Weight loss ([7]; GRADE 3, Total (n = 35)): 1 (2.9) n (%)
Related AE: Thrombocytopaenia ([7]; GRADE 4, Total (n = 35)): 1 (2.9) n (%)
AEs leading to dose reduction ([7]; Total (n = 35)): 4 (11) n (%)
AEs leading to dosing interruption ([7]; Total (n = 35)): 19 (54) n (%)
DLTs ([7]; Total (n = 35)): 1 (2.9) n (%)
Grade ≥ 3 AEs ([7]; Total (n = 35)): 19 (54) n (%)
Related SAEs ([7]; Total (n = 35)): 3 (8.6) n (%)
SAEs ([7]; Total (n = 35)): 14 (40) n (%)
Common AE: nausea ([7]; any grade, n = 35): 66%
AEs leading to dosing interruption [7, 8]: 2 (67) n (%)
AEs leading to study discontinuation [7, 8]: 1 (33) n (%)
AEs leading to dosing interruption [7, 9]: 4 (57) n (%)
DLTs [7, 9]: 1 (14) n (%)
Grade ≥ 3 AEs [7, 9]: 3 (43) n (%)
SAEs ([7]; cohort 1A-2 1.3 mg/kg (100 mg) (n = 7), oral once daily): 2 (29) n (%)
AEs leading to dosing interruption ([7]; cohort 1A-3 1.5 mg/kg (n = 5)): 2 (40) n (%)
AEs leading to study discontinuation ([7]; cohort 1A-3 1.5 mg/kg (n = 5)): 2 (40) n (%)
Grade ≥ 3 AEs ([7]; cohort 1A-3 1.5 mg/kg (n = 5)): 2 (40) n (%)
SAEs ([7]; cohort 1A-3 1.5 mg/kg (n = 5)): 2 (40) n (%)
AEs leading to dose reduction ([7]; cohort 1A-4 2 mg/kg (n = 6)): 2 (33) n (%)
AEs leading to dosing interruption ([7]; cohort 1A-4 2 mg/kg (n = 6)): 5 (83) n (%)
AEs leading to study discontinuation ([7]; cohort 1A-4 2 mg/kg (n = 6)): 1 (17) n (%)
Grade ≥ 3 AEs ([7]; cohort 1A-4 2 mg/kg (n = 6)): 4 (67) n (%)
Related SAEs ([7]; cohort 1A-4 2 mg/kg (n = 6)): 2 (33) n (%)
SAEs ([7]; cohort 1A-4 2 mg/kg (n = 6)): 3 (50) n (%)
AEs leading to dose reduction ([7]; cohort 1B-1 1.1 mg/kg (n = 10)): 1 (10) n (%)
AEs leading to dosing interruption ([7]; cohort 1B-1 1.1 mg/kg (n = 10)): 4 (40) n (%)
AEs leading to study discontinuation ([7]; cohort 1B-1 1.1 mg/kg (n = 10)): 3 (30) n (%)
Grade ≥ 3 AEs ([7]; cohort 1B-1 1.1 mg/kg (n = 10)): 6 (60) n (%)
SAEs ([7]; cohort 1B-1 1.1 mg/kg (n = 10)): 3 (30) n (%)
AEs leading to dose reduction ([7]; cohort 1B-2 1.4 mg/kg (n = 4)): 1 (25) n (%)
AEs leading to dosing interruption ([7]; cohort 1B-2 1.4 mg/kg (n = 4)): 2 (50) n (%)
AEs leading to study discontinuation ([7]; cohort 1B-2 1.4 mg/kg (n = 4)): 2 (50) n (%)
Grade ≥ 3 AEs ([7]; cohort 1B-2 1.4 mg/kg (n = 4)): 4 (100) n (%)
Related SAEs ([7]; cohort 1B-2 1.4 mg/kg (n = 4)): 1 (25) n (%)
SAEs ([7]; cohort 1B-2 1.4 mg/kg (n = 4)): 4 (100) n (%)
highest studied dose achieved ([7]; due to cumulative toxicity beyond the DLT treatment window): 2 mg/kg
Common AE: anorexia ([7]; n = 35): 49%
Common AE: diarrhoea ([7]; n = 35): 40%
Common AE: fatigue ([7]; n = 35): 43%
Common AE: headache ([7]; n = 35): 37%
Common AE: vomiting ([7]; n = 35): 40%
Common AE: weight loss ([7]; n = 35): 23%
deaths on study ([7]; n = 35): five deaths on study, all of which were considered not related to ODM-207
treatment-related grade ≥3 adverse event: fatigue ([7]; n = 35): 5.7%
treatment-related grade ≥3 adverse event: nausea ([7]; n = 35): 8.6%
treatment-related grade ≥3 adverse event: thrombocytopaenia ([7]; n = 35): 14.3%
Treatment discontinuation due to AEs ([7]; of 35 treated patients): 5 (14%) patients
dose-limiting toxicity observed ([7]; one patient, 100 mg (1.9 mg/kg), cohort 1A-2): intolerable grade 3 fatigue
maximum tolerated dose (MTD) ([7]; oral once daily, 28-day cycle, based upon observed adverse events beyond the DLT period): 2 mg/kg
patients who experienced a treatment-related AE ([7]; overall, n = 35): 31 (89%) patients
